Experimental data from US10428106B2, “Phosphate replacement mRNA cap analogs” (ModernaTX, Inc., priority 2015, dated 2019).

Key:
eIF4E = target: T1, eIF4E (Homo sapiens, UniProt P06730); test: Binding affinities to eIF4E using surface plasmon resonance (SPR)
T1 construct: HNAVIpeptTEVeIF4E 32-217(Biotinylated)
Description: General Outline of the Assay Procedure
A sensor chip SA (GE Healthcare) is docked into a Biacore 3000 instrument.
Compound concentration series are injected over the immobilized protein serially in increasing concentration. Interaction models are fitted globally to the experimental traces, enabling determination of Kd or KD (binding affinity; unit: M) and possibly kon (on-rate, calculated from the association phase; unit: M^−1s^−1) and koff (off-rate, calculated from the dissociation phase; unit: s^−1).
Preparation of Sensor Chip
A sensor chip (SAD5001 or SA) was docked into a Biacore 3000 instrument, washed with 50 mM NaOH, 1M NaCl. Protein eIF4E was diluted in running buffer (50 mM HEPES, 150 mM KCl, 10 mM MgCl2, 2 mM TCEP) to ˜1 μM. The diluted protein solution was injected for 300-600 seconds. Typical capture levels were 5000-6000 RU.
Test compounds were solubilized in ddH2O or DMSO to 10 mM. 100 μM stocks were prepared by 100-fold dilution in running buffer (50 mM HEPES, 150 mM KCl, 10 mM MgCl2). Assay was run with or without 1% DMSO.
Data were analyzed in GeneData. Curve fit was accepted or rejected by looking at the resulting sensorgrams and steady state fits.
Assay has been validated using running buffer with and without DMSO.

HeLa Lysate [1] = test: Cap competition assay in kinetic cell free in vitro translation (free cap analogs vs Cap1-tipped eGFP modRNA); format: biochemical; conditions: free cap analog 0-100 uM; modRNA with 1-methyl-pseudouridine and 5-methyl cytidine; fluorescence plateau
Description: The in vitro translation assay was conducted with the HeLa 1-step coupled IVT kit (ThermoFisher Scientific, Waltham, Mass.) according to the manufacturer's instructions to assess performance of new cap analogs as free compounds or as an integral part of capped mRNA. Cap analogs with affinity to eIF4E protein may reduce protein synthesis rate in cell-free translation. Further, RNAs containing such cap analogs (“Cap-modRNA”) show different potency of protein synthesis in cell-free translation.
The modified RNAs (“modRNAs”) of eGFP and mCitrine-degron, harboring chemical modifications on either the CAP structures, selected ribose units and/or the bases, were diluted in sterile nuclease-free water to a final amount of 500 ng in 5 uL. […] The in vitro translation reaction was done in a standard 96-well round bottom plate (Corning, Corning, N.Y.), covered with an self-adhesive fluorescence-compatible seal (BioRad, Hercules, Calif.) at 30° C. inside the plate reader Cytation 3 (BioTek, Winooski, Vt.).
The fluorescent signal per reaction increased over time and is considered proportional to the occurring protein synthesis. Each cell-free translation reaction was monitored for 120-180 min with the following settings: eGFP protein—ex. […] The height of the reading head was set to 1 mm above the plate and a reading speed of one per sample every 17 seconds. […]

[2] = system: human primary hepatocytes; test: Cell-based expression assay in human primary hepatocytes; conditions: normalized expression level of mRNA carrying the cap, 5-methoxy uridine; Compound 7 mRNA Cap0-like, others Cap1-like
CD-1 mice = test: In vivo expression assay of hEPO mRNA in MC3-based LNP; conditions: i.v. bolus 0.05 mg/kg, 6 h after injection, mRNA carrying the cap, 5-methoxy uridine
Description: mRNAs encoding hEPO are synthesized according to the method described in Example 2 above, co-transcriptionally incorporating cap analogs of the disclosure. […] A MC3-based lipid nanoparticle (LNP) formulation of the synthesized mRNA is produced, and is intravenously administered to CD-1 mice (n=3) at a bolus dose of 0.05 mg/kg. The level of hEPO was tested at 6 h, 24 h, or 48 h after injection.

HeLa Lysate [3] = test: Cell free translation assay of hEPO mRNAs carrying different caps; format: biochemical; conditions: hEPO levels after 3 hours; mRNA carrying the cap; modRNA with 5-methoxy uridine
[4] = residence time as listed in Table 5

T1 sequence (P06730 32-217): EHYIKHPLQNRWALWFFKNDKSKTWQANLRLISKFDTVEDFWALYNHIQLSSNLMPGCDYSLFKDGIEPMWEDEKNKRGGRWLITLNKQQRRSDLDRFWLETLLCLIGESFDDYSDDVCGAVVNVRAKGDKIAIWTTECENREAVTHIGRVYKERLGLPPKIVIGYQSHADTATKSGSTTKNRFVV

`Cn1c[n+]([C@@H]2O[C@H](COP(=O)(O)OP(=O)([O-])OP(=O)(O)OC[C@H]3O[C@@H](n4cnc5c(=O)[nH]c(N)nc54)[C@H](O)[C@@H]3O)[C@@H](O)[C@H]2O)c2nc(N)[nH]c(=O)c21` [Cap0 (i.e., m7GpppG), m7GpppG] was tested, and the τ (eIF4E; residence time, inverse of koff, Table 3) was 1.25 s and the IC50 (HeLa Lysate [1]) was 36 µM.
For `CO[C@H]1[C@@H](O)[C@H](n2c[n+](C)c3c(=O)[nH]c(N)nc32)O[C@@H]1COP(=O)(O)OP(=O)(O)OP(=O)(O)OC[C@H]1O[C@@H](n2cnc3c(=O)[nH]c(N)nc32)[C@H](O)[C@@H]1O` [ARCA], the “h-primHeps norm to Capping and Cap1” value [2] was 1.52, the “in vivo hEPO normalized to capping and Cap1” value (CD-1 mice) was 0.70 and the τ (eIF4E; [4]) was 0.6 s. The “CFT (norm to conc. & capping & cap1)” value (HeLa Lysate [3]) was 1.93.
With `CO[C@@H]1[C@H](O)[C@@H](COP(=O)(O)OP(=O)(O)OP(=O)(O)OC[C@H]2O[C@@H]([n+]3cn(C)c4c(=O)[nH]c(N)nc43)[C@H](O)[C@@H]2O)O[C@H]1n1cnc2c(=O)[nH]c(N)nc21` [Cap1, m7GpppG(2′-Om)] the “h-primHeps norm to Capping and Cap1” value [2] was 1.00, the “in vivo hEPO normalized to capping and Cap1” value (CD-1 mice) was 1.00 and the τ (eIF4E; [4]) was 1.3 s. For the same compound, the “CFT (norm to conc. & capping & cap1)” value (HeLa Lysate [3]) was 1.00.
`C[n+]1cn([C@@H]2O[C@H](COP(=O)([O-])OCCN(CCOP(=O)([O-])OC[C@H]3O[C@@H](n4c[n+](C)c5c(=O)[nH]c(N)nc54)[C@H](O)[C@@H]3O)C(=O)OC(C)(C)C)[C@@H](O)[C@H]2O)c2nc(N)[nH]c(=O)c21` [Compound 25] gave a Kd (eIF4E; SPR, Biacore 3000, captured biotinylated eIF4E, Table 3) of 300 µM.
